{"source": "patent US12583895B2", "about": "“Polypeptides for restoring endothelial function and methods of use thereof” (Vanderbilt University, priority 2019, dated 2026)", "format_in_all_cases": "cell-based", "key": {"[1]": {"system": "p38 MAPK phosphorylation", "assay": "p38 MAPK phosphorylation (Western blot) in anisomycin-treated rat aorta", "conditions": "NiPp 500 μM 30 min pretreatment, then anisomycin 200 μM 1 h, immunoblot", "protocol": "(§1) RA rings were suspended in a muscle bath and incubated with either buffer alone (Ctrl), Aniso (200 μM) for 1 h, or NiPp (500 μM) for 30 min followed by Aniso (200 μM) for 1 h. […] Proteins were extracted […] immunoblotted to examine p38MAPK phosphorylation. Quantification of relative phosphorylation to total p38MAPK level is shown. n=10, *p<0.05 in one-way ANOVA with Tukey post-test. NiPp restores endothelial dysfunction and reduced p38 MAPK phosphorylation induced by anisomycin in RA.\n(§2) RA rings were suspended in a muscle bath and incubated with either buffer alone (Ctrl), Aniso (200 μM) for 1 h, or NiPp (500 μM) for 30 min followed by Aniso (200 μM) for 1 h. […] The force generated was determined and was adjusted to the weight and length of the tissue. […] Proteins were extracted and phosphorylation of p38 MAPK was determined by Western blot analysis. […] Data are expressed as mean±SD.\np38 MAPK activation with Anisomycin. […] After treatments, endothelial-dependent relaxation was determined or tissues were snap-frozen for Western blot analysis.\nWestern blot Analysis. […] The protein-antibody complexes were visualized and quantified using the Odyssey Infrared Imaging System. Phosphorylation was calculated as a ratio of the phosphorylated protein to total protein and was then normalized to the untreated tissues (Ctrl) with the control value set as 1.0."}, "[2]": {"system": "rat aorta", "assay": "Carbachol-induced relaxation of anisomycin-treated rat aorta", "conditions": "NiPp 500 μM 30 min pretreatment, then anisomycin 200 μM 1 h", "protocol": "as §1\nas §2, with “tissue. Representative tracings from 1 out of 6 different rats are shown.” for “tissue.”, “mean±SD. […]” for “mean±SD.”\nThis produced the maximal force tension relationship as previously described. […] Contractile responses were defined by stress, calculated using force generated by tissues as follows: stress (×10^5 N/m^2)=force (g)×0.0987/area, where area=wet weight (mg)/at maximal length (mm)]/1.055.\nRelaxation was calculated as percent change in stress compared to the maximal PE-induced contraction (set as 100%). […]"}, "[3]": {"system": "human saphenous veins (HSV)", "assay": "Endothelial-dependent relaxation of human saphenous veins from CABG patients, muscle bath", "conditions": "human saphenous vein; for endothelial function (percent relaxation to carbachol) in HSV / relaxation responses normalized to baseline relaxation in HSV: 1 hour; for relaxation responses normalized to baseline relaxation in HSV: mean±SD", "protocol": "Human saphenous veins (HSV) were collected from patients undergoing coronary artery bypass grafting procedures and treated with NiPp (500 μM) for 1 hour at room temperature. PE-precontracted tissues were treated with carbachol (CCH; 10^−8 to 10^−5M). Percent relaxation was determined as a change to the maximal PE-induced contraction. Data are reported as mean responses±standard deviation. n=2. Baseline endothelial function in HSV was low.\nPE-precontracted tissues were treated with carbachol (CCH; 10^−8 to 10^−5M). Percent relaxation were determined as a change to the maximal PE-induced contraction. Data are reported as mean responses±standard deviation. n=10. […] When normalized to baseline relaxation, NiPp led to 255±321.5% in relaxation responses in HSV.\nHSV were suspended in the muscle bath, contracted with PE and treated with carbachol (CCH; 10^−8 to 10^−5 M). The percent relaxation was determined as a change to the maximal PE-induced contraction. Percent relaxation to 5×10^−6 M CCH is shown. n=10; *p<0.05 in paired t-test. […] Data are expressed as mean±SD.\nHuman saphenous veins (HSV) was obtained under approval from the Institutional Review Board of Vanderbilt University Medical Center from consented patients undergoing coronary artery bypass grafting procedures. HSV segments were collected immediately following surgical harvest and transported to the laboratory in PL for immediate experimentation.\nMeasurement of endothelial-dependent relaxation. Rings of HSV or RA (1-2 mm) were suspended in a muscle bath containing a bicarbonate buffer (120 mM sodium chloride, 4.7 mM potassium chloride, 1.0 mM magnesium sulfate, 1.0 mM monosodium phosphate, 10 mM glucose, 1.5 mM calcium chloride, and 25 mM sodium bicarbonate, pH 7.4) equilibrated with 95% O2/5% CO2 at 37° C. for 1 h at a resting tension of 1 g, manually stretched to three times the resting tension, and maintained at resting tension for an additional 1 h.\nThis produced the maximal force tension relationship as previously described. After equilibration, the rings were primed with 110 mM potassium chloride (with equimolar replacement of sodium chloride in bicarbonate buffer) to determine functional viability. Viable rings were then tested for contractile response to a dose of phenylephrine (PE) to yield submaximal contraction (approximately 60-70% of maximum KCl; 5×10^−6 M for HSV and 1-5×10^−7 M for RA) and relaxed with carbachol (CCH, 5×10^−7 M), an acetylcholine analogue, to determine endothelial-dependent relaxation responses. Force measurements were obtained using the Radnoti force transducer (model 159901A, Radnoti LLC, Monrovia, CA) interfaced with a PowerLab data acquisition system and LabChart software (AD Instruments Inc., Colorado Springs, CO). Contractile responses were defined by stress, calculated using force generated by tissues as follows: stress (×10^5 N/m^2)=force (g)×0.0987/area, where area=wet weight (mg)/at maximal length (mm)]/1.055.\nRelaxation was calculated as percent change in stress compared to the maximal PE-induced contraction (set as 100%). Each data point was averaged from at least two rings from the same specimen. To determine concurrent signaling events, tissues were frozen in liquid nitrogen at relevant timepoints.\nThis study illustrates that the NiPp polypeptide (SEQ ID NO:1) restores endothelial function in aged human saphenous veins. […]"}}, "note": "Entries after “also recorded” stand apart in the source; their conditions may differ. Non-standard residues stand in square brackets, D forms with d. No end group written: not given here. pS = N[C@@H](COP(=O)(O)O)C(=O)O", "data": [{"substance": "YARAAARQARASPAARRA(pS)AILPG (YARAAARQARASPAARRA[pS]AILPG) [NiPp, Cell-permeant phosphopeptide mimetic of Niban: transduction domain … conjugated to the region surrounding serine 602 of Niban]", "values": [{"measurement": "anisomycin-induced p38 MAPK phosphorylation relative to total p38 MAPK", "setting": "[1]", "value": "decreased; also recorded: reduced; also recorded: prevented"}, {"measurement": "endothelial-dependent relaxation (5×10^−7 M CCH) in anisomycin-treated rat aorta", "setting": "[2]", "value": "improved; also recorded: prevented; also recorded: restores"}, {"measurement": "endothelial-dependent relaxation in HSV (percent relaxation to 5×10^−6 M CCH)", "setting": "[3]; NiPp 100 μM in PL, 2 h, room temperature, n=10", "value": "improves; also recorded: improvement"}, {"measurement": "endothelial function (percent relaxation to carbachol) in HSV", "setting": "[3]; NiPp 100 μM, room temperature, n=10", "value": "increased endothelial function"}, {"measurement": "relaxation responses normalized to baseline relaxation in HSV", "setting": "[3]; NiPp 100 μM, n=10", "value": "255±321.5", "unit": "%"}, {"measurement": "endothelial function (percent relaxation to carbachol) in HSV", "setting": "[3]; NiPp 500 μM, room temperature, n=2", "value": "increased endothelial function"}, {"measurement": "relaxation responses normalized to baseline relaxation in HSV", "setting": "[3]; NiPp 500 μM, n=2", "value": "183±24", "unit": "%"}]}]}
